Measured values as given in PubChem BioAssay (NCI).
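96-well plates; 48 h exposure; 5 concentrations. Endpoints by linear interpolation between flanking doses. Not reached: highest tested concentration assigned. TGI marks complete inhibition of growth.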

Columns and labels:
Experiment in all cases: DTP human tumour cell line panel, 48 h
[1] = tested on: 786-0 renal
[2] = tested on: A549 NSCLC
[3] = tested on: ACHN renal
[4] = tested on: BT-549 breast
[5] = tested on: CAKI-1 renal
[6] = tested on: CCRF-CEM leukemia
[7] = tested on: COLO 205 colon
[8] = tested on: DU-145 prostate
[9] = tested on: EKVX NSCLC
[10] = tested on: HCC-2998 colon
[11] = tested on: HCT-116 colon
[12] = tested on: HCT-15 colon
[13] = tested on: HL-60(TB) leukemia
[14] = tested on: HOP-62 NSCLC
[15] = tested on: HOP-92 NSCLC
[16] = tested on: HT29 colon
[17] = tested on: IGROV1 ovarian
[18] = tested on: K-562 leukemia
[19] = tested on: KM12 colon
[20] = tested on: LOX IMVI melanoma
[21] = tested on: M14 melanoma
[22] = tested on: MALME-3M melanoma
[23] = tested on: MCF7 breast
[24] = tested on: MDA-N
[25] = tested on: MOLT-4 leukemia
[26] = tested on: NCI-H226 lung
[27] = tested on: NCI-H23 lung
[28] = tested on: NCI-H460 lung
[29] = tested on: NCI-H522 lung
[30] = tested on: NCI/ADR-RES ovarian
[31] = tested on: OVCAR-3 ovarian
[32] = tested on: OVCAR-4 ovarian
[33] = tested on: OVCAR-5 ovarian
[34] = tested on: OVCAR-8 ovarian
[35] = tested on: PC-3 prostate
[36] = tested on: RPMI-8226 leukemia
[37] = tested on: RXF 393 renal
[38] = tested on: SF-268 CNS
[39] = tested on: SF-295 CNS
[40] = tested on: SF-539 CNS
[41] = tested on: SK-MEL-28 melanoma
[42] = tested on: SK-MEL-5 melanoma
[43] = tested on: SK-OV-3 ovarian
[44] = tested on: SN12C renal
[45] = tested on: SNB-19 CNS
[46] = tested on: SNB-75 CNS
[47] = tested on: SR leukemia
[48] = tested on: SW-620 colon
[49] = tested on: TK-10 renal
[50] = tested on: U251 CNS
[51] = tested on: UACC-257 melanoma
[52] = tested on: UACC-62 melanoma
[53] = tested on: UO-31 renal

Measured: TGI

CC[N+](C)(CC)CCNC(=O)C(O)(c1ccccc1)c1ccccc1
> 100 µM: [1] | [2] | [3] | [4] | [5] | [6] | [7] | [8] | [9] | [10] | [11] | [12] | [13] | [14] | [15] | [16] | [17] | [18] | [19] | [20] | [21] | [22] | [23] | [24] | [25] | [26] | [27] | [28] | [29] | [30] | [31] | [32] | [33] | [34] | [35] | [36] | [37] | [38] | [39] | [40] | [41] | [42] | [43] | [44] | [45] | [46] | [47] | [48] | [49] | [50] | [51] | [52] | [53]
